Among the data in ChEMBL document CHEMBL1135297, “Enantioselective synthesis of S-(+)-2beta-carboalkoxy-3alpha-[bis(4-fluorophenyl)methoxy]tropanes as novel probes for the dopamine transporter” (Bioorg Med Chem Lett, 2002) are Ki and IC50 values, retold here.

Experiment [1] addresses Sodium-dependent dopamine transporter (Rattus norvegicus, UniProt P23977). The experiment is described as follows: Ability to displace [3H]WIN-35 radioligand for the dopamine transporter 428 DAT in rat brain. It is filed as tissue-based.
The target in experiment [2] is Sodium-dependent serotonin transporter (Rattus norvegicus, UniProt P31652). Put plainly: Ability to displace [3H]citalopram radioligand, for the Serotonin transporter in rat brain. It is filed as tissue-based.
Experiment [3] has as its target Norepinephrine transporter (Rattus norvegicus, UniProt Q9WTR4). Put plainly: Ability to displace [3H]-nisoxatine radioligand for the Norepinephrine transporter in rat brain. It is filed as tissue-based.
In experiment [4] the target is T1, Muscarinic acetylcholine receptor M1 (Rattus norvegicus, UniProt P08482).
T1 sequence (P08482 whole entry): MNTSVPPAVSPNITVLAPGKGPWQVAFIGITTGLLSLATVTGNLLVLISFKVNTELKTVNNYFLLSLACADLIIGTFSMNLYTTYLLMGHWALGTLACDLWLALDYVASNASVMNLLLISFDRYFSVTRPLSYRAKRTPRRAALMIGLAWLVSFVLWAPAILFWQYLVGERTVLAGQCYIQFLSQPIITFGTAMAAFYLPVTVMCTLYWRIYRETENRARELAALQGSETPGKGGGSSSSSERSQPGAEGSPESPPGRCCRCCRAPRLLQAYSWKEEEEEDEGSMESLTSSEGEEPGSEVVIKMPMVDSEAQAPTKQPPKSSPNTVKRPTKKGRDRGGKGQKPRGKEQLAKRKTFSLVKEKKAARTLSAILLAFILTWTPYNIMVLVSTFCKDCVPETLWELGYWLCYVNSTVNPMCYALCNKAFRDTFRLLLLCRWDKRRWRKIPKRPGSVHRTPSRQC
The experiment is described as follows: Ability to displace [3H]pirenzepine radioligand for the Muscarinic acetylcholine receptor M1 in rat brain. It is filed as tissue-based.

The species entered for experiment [5] is Rattus norvegicus. The experiment is described as follows: Inhibition of [3H]DA uptake in rat synaptosomes. It is filed as functional, Brain.

Each structure is given as a SMILES string.

Sodium-dependent dopamine transporter, sequence (P23977 whole entry): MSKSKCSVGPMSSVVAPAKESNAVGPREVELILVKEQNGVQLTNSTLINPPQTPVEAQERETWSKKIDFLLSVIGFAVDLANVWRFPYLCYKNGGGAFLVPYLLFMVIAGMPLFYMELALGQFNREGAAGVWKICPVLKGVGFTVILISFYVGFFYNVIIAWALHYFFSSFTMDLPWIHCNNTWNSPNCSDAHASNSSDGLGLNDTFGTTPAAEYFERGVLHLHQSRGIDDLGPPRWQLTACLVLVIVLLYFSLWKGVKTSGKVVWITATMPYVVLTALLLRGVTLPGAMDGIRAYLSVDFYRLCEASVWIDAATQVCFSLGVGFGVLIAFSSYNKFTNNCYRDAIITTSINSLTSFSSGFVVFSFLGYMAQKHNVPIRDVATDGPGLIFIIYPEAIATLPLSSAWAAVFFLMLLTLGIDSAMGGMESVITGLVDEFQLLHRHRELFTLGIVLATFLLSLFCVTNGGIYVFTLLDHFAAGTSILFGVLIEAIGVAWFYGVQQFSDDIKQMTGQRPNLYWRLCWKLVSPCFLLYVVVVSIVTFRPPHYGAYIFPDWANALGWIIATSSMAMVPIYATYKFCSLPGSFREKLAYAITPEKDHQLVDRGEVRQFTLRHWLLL
Norepinephrine transporter, sequence (Q9WTR4 whole entry): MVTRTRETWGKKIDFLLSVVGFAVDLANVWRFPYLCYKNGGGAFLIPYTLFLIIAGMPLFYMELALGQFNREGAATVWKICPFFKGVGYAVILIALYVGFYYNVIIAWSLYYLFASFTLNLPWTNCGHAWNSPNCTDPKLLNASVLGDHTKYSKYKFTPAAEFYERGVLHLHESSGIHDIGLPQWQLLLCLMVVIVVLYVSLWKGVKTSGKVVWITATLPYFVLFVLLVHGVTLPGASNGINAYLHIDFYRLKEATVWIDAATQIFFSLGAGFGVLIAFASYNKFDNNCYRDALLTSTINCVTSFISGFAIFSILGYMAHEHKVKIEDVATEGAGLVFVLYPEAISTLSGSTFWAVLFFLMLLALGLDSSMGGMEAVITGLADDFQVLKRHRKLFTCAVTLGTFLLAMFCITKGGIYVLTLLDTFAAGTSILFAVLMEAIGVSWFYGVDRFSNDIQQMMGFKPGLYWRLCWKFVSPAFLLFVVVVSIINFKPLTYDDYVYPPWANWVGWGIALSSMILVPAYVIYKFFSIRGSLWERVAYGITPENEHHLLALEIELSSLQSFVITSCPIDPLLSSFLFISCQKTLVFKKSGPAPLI
Sodium-dependent serotonin transporter, sequence (P31652 whole entry): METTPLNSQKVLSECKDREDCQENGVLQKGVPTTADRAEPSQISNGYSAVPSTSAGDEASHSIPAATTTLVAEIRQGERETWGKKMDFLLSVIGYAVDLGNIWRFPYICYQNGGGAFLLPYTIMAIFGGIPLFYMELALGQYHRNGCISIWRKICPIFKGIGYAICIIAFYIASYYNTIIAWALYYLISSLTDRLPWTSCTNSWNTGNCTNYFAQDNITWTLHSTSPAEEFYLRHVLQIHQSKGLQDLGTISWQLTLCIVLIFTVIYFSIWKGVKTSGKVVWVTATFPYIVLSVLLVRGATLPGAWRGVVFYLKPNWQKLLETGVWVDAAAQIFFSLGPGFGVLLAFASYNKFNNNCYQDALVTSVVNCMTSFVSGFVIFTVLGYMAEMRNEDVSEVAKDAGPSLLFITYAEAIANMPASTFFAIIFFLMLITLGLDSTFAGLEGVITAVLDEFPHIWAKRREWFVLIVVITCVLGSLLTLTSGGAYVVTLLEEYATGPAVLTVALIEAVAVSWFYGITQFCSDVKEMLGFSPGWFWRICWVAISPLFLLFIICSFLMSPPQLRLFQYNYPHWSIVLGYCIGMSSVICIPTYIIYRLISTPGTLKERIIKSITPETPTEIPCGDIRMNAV

As a reminder, the Ki is a dissociation constant, usually derived from enzyme kinetics or from competition with a known ligand. Read a high Ki as a looser hold on the target. What is called IC50 is the concentration that inhibits the measured activity by half. Read a low IC50 as greater potency in that assay. For `CN1C2CCC1C(C(=O)OCc1ccccc1)C(OC(c1ccc(F)cc1)c1ccc(F)cc1)C2` (racemic), the Ki is 90.3 nM in experiment [1], 3320 nM in experiment [2], 4110 nM in experiment [3] and 5100 nM in experiment [4]. In addition, the IC50 in experiment [5] worked out at 3.5 nM.

For the molecule `CN1C2CCC1C(C(=O)OCc1ccccc1)C(OC(c1ccc(F)cc1)c1ccc(F)cc1)C2` (stereo unspecified), the Ki was determined as 40.2 nM in experiment [1], 2040 nM in experiment [2], 2230 nM in experiment [3] and 4380 nM in experiment [4]. This molecule also returned an IC50 in experiment [5] (Rattus norvegicus, Brain) of 2.2 nM.

As for `CN1C2CCC1CC(OC(c1ccc(F)cc1)c1ccc(F)cc1)C2` (stereo unspecified) [DIFLUOROBENZTROPINE], the Ki in experiment [2] worked out at 3260 nM; in experiment [3], 610 nM.

Consider `CCOC(=O)C1C(OC(c2ccc(F)cc2)c2ccc(F)cc2)CC2CCC1N2C` (single isomer, unassigned; (+)), for which the Ki amounted to 16.8 nM in experiment [1], 1850 nM in experiment [2], 629 nM in experiment [3] and 1890 nM in experiment [4].

As for `COC(=O)C1C(OC(c2ccc(F)cc2)c2ccc(F)cc2)CC2CCC1N2C` (racemic), the inhibition constant (Ki) in experiment [1] is 21.3 nM; in experiment [2], 1750 nM; in experiment [3] it was 474 nM; in experiment [4], 302 nM. The molecule also returned a half-maximal inhibitory concentration (IC50) in experiment [5] of 2.9 nM.

As for `COC(=O)C1C(OC(c2ccc(F)cc2)c2ccc(F)cc2)CC2CCC1N2C` (single isomer, unassigned; (+)), the inhibitory constant (Ki) in experiment [1] is 12.9 nM; in experiment [2], 690 nM; in experiment [3], 269 nM; in experiment [4], 133 nM. Moreover, in experiment [5] (Rattus norvegicus, Brain), the IC50 was 1.5 nM.

For the molecule `CC(C)OC(=O)C1C(OC(c2ccc(F)cc2)c2ccc(F)cc2)CC2CCC1N2C` (single isomer, unassigned; (+)), the Ki came out at 23.3 nM in experiment [1], 12000 nM in experiment [2], 642 nM in experiment [3] and 2680 nM in experiment [4]. In experiment [5] (Rattus norvegicus, Brain), the IC50 was 6.2 nM.

Regarding `CC(C)OC(=O)C1C(OC(c2ccc(F)cc2)c2ccc(F)cc2)CC2CCC1N2C` (racemic), the Ki is 49.1 nM in experiment [1], 13800 nM in experiment [2], 1990 nM in experiment [3] and 7640 nM in experiment [4]. Moreover, in experiment [5], the IC50 was determined as 6.8 nM.

For the molecule `CCOC(=O)C1C(OC(c2ccc(F)cc2)c2ccc(F)cc2)CC2CCC1N2C` (racemic), the Ki was found to be 26.2 nM in experiment [1], 3740 nM in experiment [2], 1020 nM in experiment [3] and 1860 nM in experiment [4]. The molecule further gave an IC50 in experiment [5] (Rattus norvegicus, Brain) of 3.6 nM.
